Measurements reported in ChEMBL document CHEMBL1127438, “Substituted (S)-phenylpiperidines and rigid congeners as preferential dopamine autoreceptor antagonists: synthesis and structure-activity relationships” (J Med Chem, 1994).
“And” between values parts separate entries of the source, which are not always exact repeats. Equal entries are not always repeated.

Experiments:
[1] = molecular target: Dopamine receptor; assay: Tested for in vitro binding affinity against cloned mammalian dopamine autoreceptor (DA) receptors expressed in CHO-K1 cells using [3H]U-86170 as radioligand; format: cell-based
[2] = molecular target: T1, D(2) dopamine receptor (Rattus norvegicus, UniProt P61169); assay: Tested for affinity against striatal dopamine autoreceptor (DA) D2 receptors using [3H]spiperone as radioligand in rats.
T1 sequence (P61169 whole entry): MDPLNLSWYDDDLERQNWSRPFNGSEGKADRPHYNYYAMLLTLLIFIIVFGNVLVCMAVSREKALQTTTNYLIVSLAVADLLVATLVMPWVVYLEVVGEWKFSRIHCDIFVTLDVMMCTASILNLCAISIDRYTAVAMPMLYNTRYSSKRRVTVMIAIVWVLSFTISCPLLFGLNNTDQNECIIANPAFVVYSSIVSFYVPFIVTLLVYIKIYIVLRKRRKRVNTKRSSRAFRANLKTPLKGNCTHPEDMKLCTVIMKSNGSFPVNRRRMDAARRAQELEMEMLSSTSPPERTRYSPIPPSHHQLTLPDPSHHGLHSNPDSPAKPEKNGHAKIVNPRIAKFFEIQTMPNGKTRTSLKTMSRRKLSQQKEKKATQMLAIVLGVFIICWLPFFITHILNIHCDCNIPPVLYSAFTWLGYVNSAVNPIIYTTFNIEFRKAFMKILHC

[3] = test system: Rattus norvegicus; assay: Evaluated for locomotor activity in nonpretreated habituated rats at 100 umol/kg of subcuteneous dose; format: functional; set-up: unit not given here
[4] = test system: Rattus norvegicus; assay: Compound is evaluated for DOPA accumulation in reserpine-pretreated habituated rats at 100 umol/kg of subcuteneous dose in rat striatum; format: functional
[5] = test system: Rattus norvegicus; assay: Evaluated for biochemical levels of DOPAC in nonpretreated habituated rats for subcuteneous dose of 100 micro mol/kg in rat striatum; format: functional
[6] = test system: Rattus norvegicus; assay: Compound is evaluated for locomotor activity in reserpine-pretreated habituated rats for (100 umol/kg) subcuteneous dose; format: functional
[7] = molecular target: T2, D(3) dopamine receptor (Homo sapiens, UniProt P35462); assay: Tested for in vitro binding affinity against cloned mammalian dopamine autoreceptor (DA) receptors expressed in CHO-K1 cells [3H]-spiperone as radioligand; format: cell-based
T2 sequence (P35462 whole entry): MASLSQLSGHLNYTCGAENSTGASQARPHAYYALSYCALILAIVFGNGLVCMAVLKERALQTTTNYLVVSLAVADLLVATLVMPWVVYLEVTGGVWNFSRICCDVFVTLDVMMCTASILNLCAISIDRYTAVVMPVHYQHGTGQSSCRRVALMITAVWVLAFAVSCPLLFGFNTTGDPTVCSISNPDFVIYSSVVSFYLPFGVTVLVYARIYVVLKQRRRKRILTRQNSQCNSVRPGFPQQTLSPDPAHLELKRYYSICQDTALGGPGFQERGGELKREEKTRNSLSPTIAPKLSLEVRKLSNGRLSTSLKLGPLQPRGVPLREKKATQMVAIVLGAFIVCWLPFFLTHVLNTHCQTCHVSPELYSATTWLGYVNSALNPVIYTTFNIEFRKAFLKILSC

[8] = molecular target: T3, D(2) dopamine receptor (Homo sapiens, UniProt P14416); assay: biochemical
T3 sequence (P14416 whole entry): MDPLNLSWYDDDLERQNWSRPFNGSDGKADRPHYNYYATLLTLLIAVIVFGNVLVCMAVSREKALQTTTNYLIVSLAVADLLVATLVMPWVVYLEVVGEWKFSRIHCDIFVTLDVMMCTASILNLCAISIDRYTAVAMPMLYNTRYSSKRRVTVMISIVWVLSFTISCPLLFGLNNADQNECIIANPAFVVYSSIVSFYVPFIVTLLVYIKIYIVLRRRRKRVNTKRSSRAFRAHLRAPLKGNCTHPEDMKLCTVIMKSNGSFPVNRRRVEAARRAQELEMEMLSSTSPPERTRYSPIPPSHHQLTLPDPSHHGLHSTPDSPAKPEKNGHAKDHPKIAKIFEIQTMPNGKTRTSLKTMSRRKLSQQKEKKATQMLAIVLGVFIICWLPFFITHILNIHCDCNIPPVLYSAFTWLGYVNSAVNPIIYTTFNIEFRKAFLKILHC
Description: (§1) Affinity against recombinant dopamine receptor (DA) D2 expressed in CHO-K1 cells, using [3H]-spiperone as radioligand

[9] = molecular target: T3, D(2) dopamine receptor; conditions: cho-k1
Description: as §1

[10] = test system: Rattus norvegicus; assay: Evaluated for locomotor activity in nonpretreated habituated rats in 100 umol/kg of subcuteneous dose; format: functional; set-up: unit not given here
[11] = test system: Rattus norvegicus; assay: Compound is evaluated for locomotor activity in reserpine-pretreated habituated rats at 100 micro mol/kg of subcuteneous dose; format: functional
[12] = molecular target: T1, D(2) dopamine receptor
Description: Affinity against striatal dopamine D2 receptors using [3H]spiperone as radioligand in rats.

[13] = organism: Rattus norvegicus; assay: Compound was tested in vio for concomitant ability to antagonize the locomotor activity of rat induced by Di-Pr-5,6-ADTN, Value expressed as locomotor activity (LMA), % of control; format: functional; set-up: scale not given: the % may be the effect or the level left
[14] = test system: Rattus norvegicus; assay: Evaluated biochemically in reserpine-pretreated habituated rats for (100 umol/kg) subcuteneous dose, Value expressed as locomotor activity (LMA); format: functional
[15] = test system: Rattus norvegicus; assay: Effect of (60 min after administration of 200 (uM/kg) subcuteneous dose on DA release in brain dialysis model of rat striatum; Values expressed as percent of saline controls; format: functional
[16] = molecular target: T3, D(2) dopamine receptor; assay: biochemical; remark: listed apart in the source
Description: In vitro binding affinity against cloned mammalian dopamine D2 autoreceptor, expressed in CHO-K1 cells, using [3H]U-86170 as radioligand

[17] = molecular target: T2, D(3) dopamine receptor; assay: Tested for in vitro binding affinity against cloned mammalian dopamine D3 receptor, expressed in CHO-K1 cells, using [3H]spiperone as radioligand; format: cell-based
[18] = test system: Rattus norvegicus; assay: Tested in vivo for its ability to displace DA receptor agonist (Di-Pr-5,6-ADTN) from rat striatal binding sites at 0.25 uM/Kg sc. dose (after subtraction of cerebellum levels); format: functional
[19] = test system: Rattus norvegicus; assay: Compound is tested for its ability to displace Di-Pr-5,6-ADTN at […] subcutaneous dose from rat striatal binding sites in vivo; format: functional
[20] = test system: Rattus norvegicus; assay: Evaluated for DOPA accumulation in nonhabituated rats at 100 umol/kg of subcuteneous dose in rat striatum; format: functional
[21] = organism: Rattus norvegicus; assay: Compound is tested for concomitant ability to antagonize the locomotor activity induced by Di-Pr-5,6-ADTN; format: functional
[22] = test system: Rattus norvegicus; assay: Effect (60 min after administration of 200 (micro mol/kg) subcuteneous dose on DA release in brain dialysis model of rat striatum; format: functional
[23] = test system: Rattus norvegicus; assay: Compound is evaluated for DOPA accumulation in reserpine-pretreated habituated rats at 100 micro mol/kg of subcuteneous dose in rat striatum; format: functional
[24] = test system: Rattus norvegicus; assay: Compound is evaluated biochemically in reserpine-pretreated habituated rats for (50 micro mol/kg) subcuteneous dose in 5-HTP; format: functional
[25] = test system: Rattus norvegicus; assay: Compound is evaluated for biochemical levels of DOPAC in nonpretreated habituated rats for subcuteneous dose of 100 umol/kg in rat striatum; format: functional
[26] = molecular target: T1, D(2) dopamine receptor; assay: Tested for affinity against cloned mammalian dopamine autoreceptor (DA) D2 receptors expressed in CHO-K1 cells using [3H]spiperone as radioligand; format: cell-based
[27] = test system: Rattus norvegicus; assay: Compound is evaluated DOPA accumulation in nonhabituated rats for (1.3 micro mol/kg) subcuteneous dose in rat striatum; format: functional
[28] = test system: Rattus norvegicus; assay: Effect (60 min after administration of 200 (5.3 umol/kg) subcuteneous dose on DA release in brain dialysis model of rat; format: functional
[29] = test system: Rattus norvegicus; assay: Compound is evaluated for locomotor activity in nonpretreated habituated rats at 1.6 micro mol/kg of subcuteneous dose; format: functional
[30] = test system: Rattus norvegicus; assay: Compound is evaluated for locomotor activity in nonhabituated rats at 1.3 micro mol/kg of subcuteneous dose; format: functional
[31] = test system: Rattus norvegicus; assay: Compound is tested for its ability to displace (Di-Pr-5,6-ADTN) at […] of subcutaneous dose from rat striatal binding sites in vivo; format: functional

Row | Ki [2] [nM] | Structure (SMILES) | Ki [1] [nM] | LMA [3] | Activity [4] [%] | Activity [5] [%] | Ki [7] [nM] | Ki [8] [nM] | LMA [21] [%] | also measured
1 | > 172 | C=CCN1CC[C@@H]2c3cccc(OS(=O)(=O)C(F)(F)F)c3CC[C@@H]21 (stereo in doubt; 50) | > 1900 | – | – | 98 | > 500 | – | – | Ki [9]: > 217 nM; LMA [10]: 148
2 | – | CCCN1CCC[C@@H](c2cccc(C#N)c2)C1 | – | – | – | – | – | 265 | – | Ki [12]: 1140 nM; Control [13]: 31%; Control [14]: 12%; Activity [15]: 252%; Ki [16]: 119 nM; Ki [17]: 249 nM; Control [18]: 66%
3 | > 172 | C=CCN1CCC2c3cccc(OS(=O)(=O)C(F)(F)F)c3CCC21 (stereo not given) | 125 | – | – | 175 | 67 | > 217 | – | Activity [23]: 92%; Activity [24]: 52%; LMA [10]: 443 and 635
4 | 1320 | CCCN1CCC[C@@H](c2cccc(OS(=O)(=O)c3ccc(C)cc3)c2)C1 | 162 | 152 | – | – | 92 | > 217 | – | Activity [25]: 89%
5 | 2330 | CN(C)CCCN1CCC[C@@H](c2cccc(C#N)c2)C1 | – | – | – | – | – | – | – | Ki [26]: > 217 nM
6 | – | O=C(CCCN1CCC(O)(c2ccc(Cl)cc2)CC1)c1ccc(F)cc1 [HALOPERIDOL] | – | – | – | 404 | – | – | 7 | Activity [27]: 356%; Activity [28]: 211%; LMA [29]: 61; LMA [30]: 2; Activity [19]: 82%
7 | – | CCCN(CCC)C1CCc2c(ccc(O)c2O)C1 (stereo not given) | – | – | – | – | – | – | 100 | Activity [31]: 0%

Row | Structure (SMILES) | Ki [2] [nM] | Ki [1] [nM] | LMA [3] | Activity [4] [%] | Activity [5] [%] | Ki [7] [nM] | Ki [8] [nM] | LMA [21] [%] | also measured
8 | CCCN1CCC[C@@H](c2cccc(C=O)c2)C1 | 1120 | 20 | 208 | 92 | 127 | 83 | 145 | – | LMA [6]: 5
9 | CCCN1CCC[C@@H](c2cccc(SC)c2)C1 | 849 | 49 | 313 | 92 | 118 | 139 | > 217 | – | LMA [11]: 5
10 | CCCN1CCC[C@@H](c2ccccc2)C1 | 1490 | 222 | – | 65 | 188 | 777 | > 217 | 90 | Activity [19]: 20%; Activity [20]: 140%; Activity [22]: 473%
